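Method: 48-hour compound exposure of cells in 96-well plates, five concentrations, linear interpolation of endpoints. At the TGI there is no net growth.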
Experiments:
Experiment in all cases: DTP human tumour cell line panel, 48 h
A549 NSCLC = system: A549 NSCLC
BT-549 breast = system: BT-549 breast
COLO 205 colon = system: COLO 205 colon
EKVX NSCLC = system: EKVX NSCLC
HCT-116 colon = system: HCT-116 colon
MDA-MB-231 breast = system: MDA-MB-231 breast
NCI-H226 lung = system: NCI-H226 lung
NCI-H23 lung = system: NCI-H23 lung
NCI-H460 lung = system: NCI-H460 lung
NCI/ADR-RES ovarian = system: NCI/ADR-RES ovarian
OVCAR-3 ovarian = system: OVCAR-3 ovarian
RPMI-8226 leukemia = system: RPMI-8226 leukemia
SK-MEL-2 melanoma = system: SK-MEL-2 melanoma
SK-MEL-28 melanoma = system: SK-MEL-28 melanoma
SN12C renal = system: SN12C renal
SNB-75 CNS = system: SNB-75 CNS
U251 CNS = system: U251 CNS
UACC-62 melanoma = system: UACC-62 melanoma
MALME-3M melanoma = system: MALME-3M melanoma
SR leukemia = system: SR leukemia

Structure (SMILES)	TGI (A549 NSCLC) [µM]	TGI (BT-549 breast) [µM]	TGI (COLO 205 colon) [µM]	TGI (EKVX NSCLC) [µM]	TGI (HCT-116 colon) [µM]	TGI (MDA-MB-231 breast) [µM]	TGI (NCI-H226 lung) [µM]	TGI (NCI-H23 lung) [µM]	TGI (NCI-H460 lung) [µM]	TGI (NCI/ADR-RES ovarian) [µM]	TGI (OVCAR-3 ovarian) [µM]	TGI (RPMI-8226 leukemia) [µM]	TGI (SK-MEL-2 melanoma) [µM]	TGI (SK-MEL-28 melanoma) [µM]	TGI (SN12C renal) [µM]	TGI (SNB-75 CNS) [µM]	TGI (U251 CNS) [µM]	TGI (UACC-62 melanoma) [µM]	TGI (MALME-3M melanoma) [µM]	TGI (SR leukemia) [µM]
CCOC(=O)NNC(=O)NCCCCNC(=O)NNC(=O)OCC	> 100	> 100	> 100	> 100	> 100	> 100	> 100	> 100	> 100	> 100	> 100	> 100	> 100	> 100	> 100	> 100	> 100	> 100		
CC(=O)NC1=N/C(=C\c2ccc(Cl)cc2)C(=O)N1/C=C1\C(=O)Oc2ccccc2C1=O	> 100		> 100	> 100	> 100	> 100	> 100	> 100	> 100	> 100	> 100	> 100	> 100	> 100	> 100	> 100	> 100	> 100	> 100	> 100
CC(C)[Si]1(C(C)C)OCC2OC3(CO)C(Oc4nc(=O)ccn43)C2O[Si](C(C)C)(C(C)C)O1 (stereo not given)		24.9	22	35	24.7	23.2	31	30.1	29.2	41.6		23.9	30.5	29.3		30.7	28.1	26.8		47.1
Nc1ccn([C@H]2CO[C@@H](CO)[C@@H]2O)c(=O)n1		> 100	> 100	> 100	> 100	> 100	> 100	> 100	> 100	> 100	> 100	> 100	> 100	> 100	> 100	> 100	> 100	> 100		> 100
CCOC(=O)Cc1ccc(Nc2nc3ccccc3nc2C(=O)OCC)cc1	> 100	> 100	> 100	> 100	> 100		> 100	> 100	> 100	> 100	> 100		> 100	> 100	> 100	38.3	> 100	> 100	> 100	> 100
CC(C)(C)OC/C=C(/CO)[C@@H]1C=C[C@H](O)C1	> 100	> 100	> 100	> 100	> 100	> 100	> 100	> 100	> 100	> 100	> 100	> 100	> 100	> 100	> 100	> 100	> 100	> 100	> 100	
Cc1cc(C(F)(F)F)cc(-n2nc(NS(=O)(=O)c3cc(C)c(Cl)cc3S)nc2N)n1	> 100		> 100	> 100	> 100	> 100	> 100		70.7	94.1	> 100	> 100	> 100	> 100	> 100	> 100	> 100	> 100	> 100	> 100
CN(C)/N=C1/CCC(C(F)(F)F)(C(F)(F)F)O1	> 100		31.2	> 100	94	57.4	84	98.4	> 100	69.6	50.7	85.5	90.6	> 100	81	97.5	> 100	68.8	61.1	> 100
Cc1ccc(Cl)c2c(=O)c3ccc(N)cc3sc12	85.3	> 100	37.5	52.8	35.1	74.8	48.4	97.4	> 100	35	47.7	42.3	44.6		32.9	37.8		30.8		
CC1(C)OC[C@@H]([C@H](O)C2C=CC(=O)S2)O1 (stereo not given in full)	> 100	47.5	40.5	> 100	27.3	70	> 100	78.5	> 100	83.6	> 100	53.4	77.1		> 100	> 100	90.4	35.9	43.1	
C=CCN1CCC(O)(c2cc(C(=O)OCC)[nH]c2-c2cc(C)no2)C1 (stereo not given)	> 100	> 100	> 100	> 100	> 100	> 100	> 100	> 100	> 100	> 100	> 100	> 100	> 100	> 100	> 100	> 100	> 100	> 100	> 100	
CCCC(=O)N1CCN(c2ccc3c(c2)OC(C)O3)CC1 (stereo not given)	> 100	> 100	> 100	> 100	> 100	> 100	> 100	> 100	> 100	> 100	> 100			> 100	> 100	> 100	> 100	> 100	> 100	> 100
O=C1NI(C#Cc2ccccc2)c2ccccc21	> 100	> 100	> 100		> 100	> 100	> 100	> 100	> 100	> 100	> 100	> 100	> 100	> 100	> 100		> 100	> 100	> 100	> 100
CSc1ccsc1-c1sc(-c2cc(SC)c(-c3sc(-c4cc(SC)c(-c5sccc5SC)s4)cc3SC)s2)cc1SC	> 100	> 100	> 100	> 100	> 100	> 100		> 100	> 100	> 100	> 100	> 100	> 100	> 100	> 100		> 100	> 100	81.7	
CCOc1nnnc2nc[nH]c12	> 100	> 100	> 100	> 100	> 100	> 100	> 100	> 100	> 100	> 100	> 100	> 100	> 100	> 100	> 100	> 100	> 100	> 100	> 100	
C=C(Nc1nc2ccc(C)cc2s1)C(=O)C(CC)C(=O)C(CC)CC1C(=O)NC(=O)NC1=O (stereo not given)	> 100	> 100	> 100	> 100	> 100	> 100	> 100	> 100	> 100	> 100	> 100		> 100	> 100	> 100	> 100	> 100	> 100		
COC(=O)NC(C(F)(F)F)(C(F)(F)F)P1(=O)OCCCO1	> 100	68.3	69.9		62	62.9	98.7	50.9	84.6	> 100	> 100	48.5		> 100	> 100	> 100	29.8	33.2		69.5
CC(C)(C)[Si](C)(C)Oc1ccc(C2CNC(=O)C23CCC(=O)N3Cc2ccccc2)cc1 (stereo not given)	33.2	33.1	25.3	22.4	> 100		44.8	25.5	20.8	26.7	33	18.8	35.5		35.9	32.1	36.2	32	48.4	> 100
c1ccc2c(c1)SCCC2NC1=NCCO1 (stereo not given)	> 100		> 100	> 100	> 100	> 100	> 100	> 100	> 100	> 100	> 100	> 100	> 100	> 100	> 100	> 100	> 100	> 100	> 100	> 100
O=c1c2ncn(C3CCCO3)c2n(-c2ccccc2)c(=S)n1-c1ccccc1 (stereo not given)	> 100	> 100	> 100	> 100	> 100	> 100	> 100	> 100	> 100	> 100	> 100	> 100	> 100	> 100	> 100	> 100	> 100	> 100		> 100
COc1ccc(-c2nc3ncccn3c2-c2ccc(SC)cc2)cc1	9.88	46.5	3.31		5.15	> 100		> 100	7.87	5.24	2.09	29.2	> 100	> 100	> 100	> 100	29	13		10.6
COC1(OC)CCCc2c1no[n+]2[O-]	> 100		> 100	> 100	> 100	> 100	> 100	> 100	> 100	> 100	> 100	> 100	> 100	> 100	> 100	> 100	> 100	> 100	> 100	> 100
CC(=O)OCC1OC(n2c(C)cc(C)c(C#N)c2=S)C(OC(C)=O)C(OC(C)=O)C1OC(C)=O (stereo not given)	> 100	> 100	> 100		> 100	> 100	> 100	> 100	> 100	> 100	> 100	> 100	> 100	> 100	> 100	> 100	> 100	> 100	> 100	> 100
[N-]=[N+]=NCc1nc(N)c2c3c(sc2n1)CCCC3	36.6		> 39.3	4.95	12	80.6	5.97	3.78	13.6	> 22.2	11.8	> 24.9	27.9	36.3	10.2	20.9	> 25.3	23.6	3.27	> 100
Cn1c2c(c3ccccc31)CCN1C(=O)CN(C(=O)C3CCCCC3)CC21 (stereo not given)	> 100		> 100	> 100	> 100	> 100	> 100	> 100	> 100	> 100	> 100	> 100	> 100	> 100	> 100	> 100	> 100	> 100	> 100	> 100
O=C1C=C(NCCOCCO)C(=O)c2c(O)ccc(O)c21	73.6	> 100	32.7		55	> 100	> 100	47.9	> 100	65.7	65.4	78	51.9	> 100		> 100	77.9	28.2	24.2	

From PubChem BioAssay (NCI)
